This is an account of results in patent US6177253A, “Screening methods for the identification of anti-HIV compounds employing a cyclosporine-specific monoclonal antibody that cross-reacts with HIV-1 p24” (priority 1998, dated 2001).

Some results are limits rather than exact numbers.

Holding throughout (type): binding, BALB/c mice
For one test, the system named is C4 2.2. The experiment in a line: ELISA inhibition by singly modified Cs-derivatives, McAb C4 2.2. The settings on record: group V; McAb binds selectively to Thr^2 -Cs-BSA coating. How it is done: (§1) A second ELISA Procedure used conjugates of D-Lys^8 -Cs-BSA and Thr^2 -Cs-BSA for coating (Queeniaux et al., 1987b). An indirect detection system consisting of rabbit anti-mouse Ig followed by alkaline phosphates-conjugated goat anti-rabbit IgG was performed as previously described (Queenlaux et al., 1987b).
(§2) The binding of the 22 McAbs to these two Cs-BSA conjugates was also found to correlate well with their fine specificity patterns, as characterized with a set of 28-36 Cs derivatives. Typical ELISA curves showing McAb binding either to D-Lys^8 -Cs-BSA (panel A) or to Thr^2 -Ca-BSA (panel B) and inhibited by Cs or Cs derivatives are shown in FIGS. 8A-8B, D-Lys^8 -Cs-BSA was subsequently used for coating in the inhibition experiments, except for those McAbs binding selectively to Thr^2 -Cs-BSA (see Table 4 and FIGS. 7A-7C). An example of the binding of 26 Cs derivatives by McAbs belonging to each of the five specificity groups mentioned above is reported in Table 5. The results are expressed as the difference of IC50 (in log10) between the Cs derivatives and Cs. All Cs-derivatives used in this study were selected for having a conserved peptide ring conformation compared with CsA (as determined in NMR or X-ray diffraction).
(In general: In an ELISA, binding on a coated surface is turned into a signal by an enzyme label.)

The next test deals with H6 1.5. The experiment in a line: ELISA inhibition by singly modified Cs-derivatives, McAb H6 1.5. To be noted: group III; D-Lys^8 -Cs-BSA coating. As for the experimental part: as §1, §2
For the next test, the system named is G7 1.1. Put plainly: ELISA inhibition by singly modified Cs-derivatives, McAb G7 1.1. The settings on record: group I; McAb binds selectively to Thr^2 -Cs-BSA coating. As for the experimental part:
as §1, §2

In another test the test system is B11 1.4. The experiment in a line: ELISA inhibition by singly modified Cs-derivatives, McAb B11 1.4. To be noted: group IV; D-Lys^8 -Cs-BSA coating. As for the experimental part:
as §1, §2

For the next test, the system named is H4 1.3. The experiment in a line: ELISA inhibition by singly modified Cs-derivatives, McAb H4 1.3. To be noted: group II; D-Lys^8 -Cs-BSA coating. How it is done:
as §1, §2

In the case of `C/C=C/C[C@@H](C)C[C@H]1C(=O)N[C@@H](CC)C(=O)N(C)CC(=O)N(C)[C@@H](CC(C)C)C(=O)N[C@@H](C(C)C)C(=O)N(C)[C@@H](CC(C)C)C(=O)N[C@@H](C)C(=O)N[C@H](C)C(=O)N(C)[C@@H](CC(C)C)C(=O)N(C)[C@@H](CC(C)C)C(=O)N(C)[C@@H](C(C)C)C(=O)N1C` [MeBint^1 3'desoxy], the “log10 difference in the concentrations of Cs-derivatives and unmodified Cs required to achieve 50% inhibition in ELISA, McAb C4 2.2” value with C4 2.2 is reported as less than 0.0 log10. Further, the “log10 difference in the concentrations of Cs-derivatives and unmodified Cs required to achieve 50% inhibition in ELISA, McAb H6 1.5” value in the test on H6 1.5 was 0.0 log10. For the same molecule, the “log10 difference in the concentrations of Cs-derivatives and unmodified Cs required to achieve 50% inhibition in ELISA, McAb G7 1.1” value in the test with G7 1.1 was 0.6 log10. For the same molecule, the “log10 difference in the concentrations of Cs-derivatives and unmodified Cs required to achieve 50% inhibition in ELISA, McAb B11 1.4” value in the test on B11 1.4 is given as 0.4 log10. Also, the “log10 difference in the concentrations of Cs-derivatives and unmodified Cs required to achieve 50% inhibition in ELISA, McAb H4 1.3” value in the test on H4 1.3 is given as 1.2 log10.
With `CC[C@@H]1NC(=O)[C@H]([C@H](O)[C@H](C)C/C=C/CO)N(C)C(=O)[C@H](C(C)C)N(C)C(=O)[C@H](CC(C)C)N(C)C(=O)[C@H](CC(C)C)N(C)C(=O)[C@@H](C)NC(=O)[C@H](C)NC(=O)[C@H](CC(C)C)N(C)C(=O)[C@H](C(C)C)NC(=O)[C@H](CC(C)C)N(C)C(=O)CN(C)C1=O` [MeBint^1 8'-hydroxy], the “log10 difference in the concentrations of Cs-derivatives and unmodified Cs required to achieve 50% inhibition in ELISA, McAb C4 2.2” value in the test on C4 2.2 stood at 0.0 log10. Further, the “log10 difference in the concentrations of Cs-derivatives and unmodified Cs required to achieve 50% inhibition in ELISA, McAb H6 1.5” value in the test on H6 1.5 is on record as less than 0.0 log10. Besides, in the test on G7 1.1, the “log10 difference in the concentrations of Cs-derivatives and unmodified Cs required to achieve 50% inhibition in ELISA, McAb G7 1.1” value was determined as 0.0 log10. Further, in the test with B11 1.4, the “log10 difference in the concentrations of Cs-derivatives and unmodified Cs required to achieve 50% inhibition in ELISA, McAb B11 1.4” value is given as less than 0.0 log10. Moreover, the “log10 difference in the concentrations of Cs-derivatives and unmodified Cs required to achieve 50% inhibition in ELISA, McAb H4 1.3” value in the test with H4 1.3 is reported as less than 0.0 log10.
On to `C/C=C/C[C@@H](C)[C@@H](O)[C@H]1C(=O)N[C@@H](CC)C(=O)N(C)CC(=O)N(C)[C@@H](C)C(=O)N[C@@H](C(C)C)C(=O)N(C)[C@@H](CC(C)C)C(=O)N[C@@H](C)C(=O)N[C@H](C)C(=O)N(C)[C@@H](CC(C)C)C(=O)N(C)[C@@H](CC(C)C)C(=O)N(C)[C@@H](C(C)C)C(=O)N1C` [MeLeu^4 MeAla], for which, in the test on C4 2.2, the “log10 difference in the concentrations of Cs-derivatives and unmodified Cs required to achieve 50% inhibition in ELISA, McAb C4 2.2” value was determined as 0.1 log10. The “log10 difference in the concentrations of Cs-derivatives and unmodified Cs required to achieve 50% inhibition in ELISA, McAb H6 1.5” value in the test with H6 1.5 came to 1.2 log10. The “log10 difference in the concentrations of Cs-derivatives and unmodified Cs required to achieve 50% inhibition in ELISA, McAb G7 1.1” value in the test with G7 1.1 is less than 0.0 log10. In addition, the “log10 difference in the concentrations of Cs-derivatives and unmodified Cs required to achieve 50% inhibition in ELISA, McAb B11 1.4” value in the test with B11 1.4 stood at 0.3 log10. Besides, in the test with H4 1.3, the “log10 difference in the concentrations of Cs-derivatives and unmodified Cs required to achieve 50% inhibition in ELISA, McAb H4 1.3” value stood at 1.8 log10.
The like results for `C/C=C/C[C@@H](C)[C@@H](O)[C@H]1C(=O)N[C@@H](CC)C(=O)N(C)CC(=O)N(C)[C@@H](Cc2ccccc2)C(=O)N[C@@H](C(C)C)C(=O)N(C)[C@@H](CC(C)C)C(=O)N[C@@H](C)C(=O)N[C@H](C)C(=O)N(C)[C@@H](CC(C)C)C(=O)N(C)[C@@H](CC(C)C)C(=O)N(C)[C@@H](C(C)C)C(=O)N1C` [MeLeu^4 MePhe] were, in that order, 0.0 log10, 2.3 log10, less than 0.0 log10, 0.2 log10 and 0.7 log10.
On to `C/C=C/C[C@@H](C)[C@@H](O)[C@H]1C(=O)N[C@@H](CC)C(=O)N(C)CC(=O)N(C)[C@@H](CC(C)C)C(=O)N[C@@H](C(C)C)C(=O)N(C)[C@@H](C)C(=O)N[C@@H](C)C(=O)N[C@H](C)C(=O)N(C)[C@@H](CC(C)C)C(=O)N(C)[C@@H](CC(C)C)C(=O)N(C)[C@@H](C(C)C)C(=O)N1C` [MeLeu^6 McAla], for which, in the test with C4 2.2, the “log10 difference in the concentrations of Cs-derivatives and unmodified Cs required to achieve 50% inhibition in ELISA, McAb C4 2.2” value is given as 1.2 log10. The “log10 difference in the concentrations of Cs-derivatives and unmodified Cs required to achieve 50% inhibition in ELISA, McAb H6 1.5” value with H6 1.5 is 2.7 log10. Besides, in the test on G7 1.1, the “log10 difference in the concentrations of Cs-derivatives and unmodified Cs required to achieve 50% inhibition in ELISA, McAb G7 1.1” value came out at 0.7 log10. Besides, the “log10 difference in the concentrations of Cs-derivatives and unmodified Cs required to achieve 50% inhibition in ELISA, McAb B11 1.4” value in the test on B11 1.4 was 0.0 log10. Moreover, the “log10 difference in the concentrations of Cs-derivatives and unmodified Cs required to achieve 50% inhibition in ELISA, McAb H4 1.3” value in the test on H4 1.3 was determined as 0.9 log10.
The like results for `C/C=C/C[C@@H](C)[C@@H](O)[C@H]1C(=O)N[C@@H](CC)C(=O)N(C)CC(=O)N(C)[C@@H](CC(C)C)C(=O)N[C@@H](C(C)C)C(=O)N(C)[C@@H](Cc2ccccc2)C(=O)N[C@@H](C)C(=O)N[C@H](C)C(=O)N(C)[C@@H](CC(C)C)C(=O)N(C)[C@@H](CC(C)C)C(=O)N(C)[C@@H](C(C)C)C(=O)N1C` [MeLeu^6 MePhe] were, in that order, 1.3 log10, 1.7 log10, 0.1 log10, 0.0 log10 and 1.2 log10.
On to `C/C=C/C[C@@H](C)[C@@H](O)[C@H]1C(=O)N[C@@H](CC)C(=O)N(C)CC(=O)N(C)[C@@H](CC(C)C)C(=O)N[C@@H](C(C)C)C(=O)N(C)[C@@H](CC(C)C)C(=O)N[C@@H](C)C(=O)N[C@H](C)C(=O)N(C)[C@@H](C)C(=O)N(C)[C@@H](CC(C)C)C(=O)N(C)[C@@H](C(C)C)C(=O)N1C` [MeLeu^9 MeAla], for which, in the test on C4 2.2, the “log10 difference in the concentrations of Cs-derivatives and unmodified Cs required to achieve 50% inhibition in ELISA, McAb C4 2.2” value is given as 1.9 log10. In the test with H6 1.5, the “log10 difference in the concentrations of Cs-derivatives and unmodified Cs required to achieve 50% inhibition in ELISA, McAb H6 1.5” value is recorded as 0.0 log10. For the same molecule, in the test with G7 1.1, the “log10 difference in the concentrations of Cs-derivatives and unmodified Cs required to achieve 50% inhibition in ELISA, McAb G7 1.1” value was 1.4 log10. The “log10 difference in the concentrations of Cs-derivatives and unmodified Cs required to achieve 50% inhibition in ELISA, McAb B11 1.4” value in the test with B11 1.4 was found to be 1.7 log10. Moreover, the “log10 difference in the concentrations of Cs-derivatives and unmodified Cs required to achieve 50% inhibition in ELISA, McAb H4 1.3” value with H4 1.3 was less than 0.0 log10.
The matching figures for `C/C=C/C[C@@H](C)[C@@H](O)[C@H]1C(=O)N[C@@H](CC)C(=O)N(C)CC(=O)N(C)[C@@H](CC(C)C)C(=O)N[C@@H](C(C)C)C(=O)N(C)[C@@H](CC(C)C)C(=O)N[C@@H](C)C(=O)N[C@H](C)C(=O)N(C)[C@@H](Cc2ccccc2)C(=O)N(C)[C@@H](CC(C)C)C(=O)N(C)[C@@H](C(C)C)C(=O)N1C` [MeLeu^9 MePhe]: 1.8 log10, 0.1 log10, 0.3 log10, 1.2 log10 and 0.0 log10.
The matching figures for `C/C=C/C[C@@H](C)[C@@H](O)[C@H]1C(=O)N[C@@H](CC)C(=O)N(C)CC(=O)N(C)[C@@H](CC(C)C)C(=O)N[C@@H](C(C)C)C(=O)N(C)[C@@H](CC(C)C)C(=O)N[C@@H](C)C(=O)N[C@H](C)C(=O)N(C)[C@@H](CC(C)C)C(=O)N(C)[C@@H](CC(C)C)C(=O)N(C)[C@@H]([C@@H](C)CC)C(=O)N1C` [MeVal^11 MeIle]: 0.3 log10, 0.0 log10, 0.4 log10, 0.2 log10 and 0.0 log10.
In the case of `C/C=C/C[C@@H](C)[C@@H](O)[C@H]1C(=O)N[C@@H](CC)C(=O)N(C)CC(=O)N(C)[C@@H](CC(C)C)C(=O)N[C@@H](C(C)C)C(=O)N(C)[C@@H](CC(C)C)C(=O)N[C@@H](C)C(=O)N[C@H](C)C(=O)N(C)[C@@H](CC(C)C)C(=O)N(C)[C@@H](CC(C)C)C(=O)N(C)[C@@H]([C@H](C)CC)C(=O)N1C` [MeVal^11 aMeIle], the “log10 difference in the concentrations of Cs-derivatives and unmodified Cs required to achieve 50% inhibition in ELISA, McAb C4 2.2” value in the test on C4 2.2 is given as 0.0 log10. Also, the “log10 difference in the concentrations of Cs-derivatives and unmodified Cs required to achieve 50% inhibition in ELISA, McAb H6 1.5” value with H6 1.5 is 0.3 log10. Also, the “log10 difference in the concentrations of Cs-derivatives and unmodified Cs required to achieve 50% inhibition in ELISA, McAb G7 1.1” value in the test on G7 1.1 is on record as 0.0 log10. For the same molecule, the “log10 difference in the concentrations of Cs-derivatives and unmodified Cs required to achieve 50% inhibition in ELISA, McAb B11 1.4” value in the test with B11 1.4 was less than 0.0 log10. Moreover, in the test with H4 1.3, the “log10 difference in the concentrations of Cs-derivatives and unmodified Cs required to achieve 50% inhibition in ELISA, McAb H4 1.3” value is reported as 0.3 log10.
